Results on 1 compound are retold here after US8535696B2, “Treating eczema and/or psoriasis” (Lypanosys Pte Limited, priority 2000, dated 2013).

The conditions of assay [1]: laboratory experiments, www.gcinutrients.com; cited from earlier work.
Assay [2] can be described thus: Trials with patients using dosage forms of cetyl myristate alone or with cetyl palmitate. The assay is classed as in vivo, human. The following applies: variety of patients, cetyl myristate alone.

The structures appear in SMILES notation.

`CCCCCCCCCCCCCCCCOC(=O)CCCCCCCCCCCCC` [cetyl myristate]: the anti-arthritic activity entry in assay [1] is “negligible”. Besides, in assay [2], the “relief from the symptoms of IBS and/or IBD” value is “favourable responses”.
